Patent publication US20210330661A1 (China Medical University, priority 2020, published 2021)
Where two headings read alike, the source gives them in different places.

What was measured:
SARS-CoV-2 M^pro [1] = target: T1, SARS-CoV-2 M^pro (Severe acute respiratory syndrome coronavirus 2, UniProt P0DTD1); type: binding; conditions: various concentrations; FIG. 2A, 2B
SARS-CoV-2 M^pro [2] = target: T1, SARS-CoV-2 M^pro; test: Soluble fraction / stability of Mpro in presence of drug; conditions: concentration up to 500 μM; FIG. 4
SARS-CoV-2 M^pro [3] = target: T1, SARS-CoV-2 M^pro; test: FRET assay of SARS-CoV-2 Mpro activity with tafenoquine or hydroxychloroquine; type: biochemical; conditions: FIG. 1
SARS-CoV-2 M^pro [4] = target: T1, SARS-CoV-2 M^pro; test: Limited proteolysis assay by trypsin digestion; conditions: drug 0, 30, 60, 90 μM; FIG. 5A, 5B
Method: To further probe the conformational changes of SARS-CoV-2 M^pro, the limited proteolysis assay by trypsin digestion is performed. […] Proteolysis is performed by mixing SARS-CoV-2 M^pro (0.8 mg/ml) with trypsin at a protease-to-protein ratio of 1:10 (w/w) in a reaction buffer (25 mM Tris at pH 8.0, 150 mM NaCl) at 37° C. for 30 minutes. The reaction is stopped by adding SDS sample loading buffer and boiling at 95° C. for 10 minutes and subjected to SDS-PAGE (4%-20%).

[5] = system: SARS-CoV-2 (strain NTU02) in Vero E6 cells; type: cell-based; conditions: pre-treated cells, various concentrations; compared to DMSO control; 3-day post infection; FIG. 14
SARS-CoV-2 M^pro [6] = target: T1, SARS-CoV-2 M^pro; test: FRET assay of SARS-CoV-2 Mpro activity with boceprevir or narlaprevir; type: biochemical; conditions: 50 μM drug; 1 μM Mpro; FIG. 6; read-out: inhibitory effect on SARS-CoV-2 Mpro activity
[7] = system: SARS-CoV-2 (strain NTU02) in Vero E6 cells; type: cell-based; conditions: pre-treatment, 48 hours, MOI 0.0003, FIG. 13
[8] = system: SARS-CoV-2 (strain NTU02) in Vero E6 cells; type: cell-based; conditions: 5 μM; compared with DMSO; 3-day post infection; FIG. 12
[9] = system: SARS-CoV-2 (strain NTU02) in Vero E6 cells; test: microbe, parasite or virus in culture; type: cell-based

CCN(CCO)CCCC(C)Nc1ccnc2cc(Cl)ccc12 (centres unmarked) [hydroxychloroquine]
shift in melting temperature / thermal stability of Mpro (SARS-CoV-2 M^pro [1]): no influence on the thermal stability
stability of Mpro (SARS-CoV-2 M^pro [2]): does not influence the stability
inhibitory effect on SARS-CoV-2 Mpro (SARS-CoV-2 M^pro [3]; various concentrations): does not demonstrate any significant inhibitory effects
cleavage of Mpro by trypsin (SARS-CoV-2 M^pro [4]): no concentrations of hydroxychloroquine tested reduce the cleavage

CCCC[C@H](NC(=O)[C@@H]1[C@@H]2[C@H](CN1C(=O)[C@@H](NC(=O)NC1(CS(=O)(=O)C(C)(C)C)CCCCC1)C(C)(C)C)C2(C)C)C(=O)C(=O)NC1CC1 [narlaprevir]
cytopathic effect induced by SARS-CoV-2 infection [5]: significantly lesser
inhibition at 50 µM (SARS-CoV-2 M^pro [6]): 64.1 ± 2.5%
inhibition rate against viral RNA production ([7]; 40 μM narlaprevir): approximately 76.4%

CCC(CC)COC(=O)[C@H](C)N[P@](=O)(OC[C@H]1O[C@@](C#N)(c2ccc3c(N)ncnn23)[C@H](O)[C@@H]1O)Oc1ccccc1 [remdesivir]
inhibition rate against viral RNA production ([7]; 1 μM remdesivir): ~26.3%

CC(C)(C)NC(=O)N[C@H](C(=O)N1C[C@H]2[C@@H]([C@H]1C(=O)NC(CC1CCC1)C(=O)C(N)=O)C2(C)C)C(C)(C)C (some centres unmarked) [boceprevir]
inhibition at 50 µM (SARS-CoV-2 M^pro [6]): 76.5 ± 4.8%

COc1cc(C)c2c(Oc3cccc(C(F)(F)F)c3)c(OC)cc(NC(C)CCCN)c2n1 (centres unmarked) [tafenoquine]
SARS-CoV-2-induced cytopathic effect [8]: significant decrease
viral RNA versus DMSO-treated group ([9]; 2.5 μM, day not given, FIG. 10): no significant difference
yield of viral RNA in cell supernatant ([9]; Day 1 to Day 2 after infection, FIG. 10): significantly represses
EC50 ([9]; Severe acute respiratory syndrome coronavirus 2, Vero C1008, 48 h, read-out: half maximal effective concentration (EC50)): ~2.5 µM
inhibition at 90 µM (SARS-CoV-2 M^pro [3]; 90 μM, 4 μM Mpro, read-out: inhibition against SARS-CoV-2 Mpro): ~90%
